Data as given in ChEMBL document CHEMBL4842340, “Development of Cagrilintide, a Long-Acting Amylin Analogue” (J Med Chem, 2021).
In brackets after ≈: the same amount, converted by molar mass. *1 amine or outer side, *2 acyl side, *3 side chain or, on linkers, in order; H or OH if unused. Where a SMILES comes first, the peptide text is derived from it. Bridges are numbered along the chain shown (N, C = ends). The star is where a group is joined. C20 diacid = O=C(O)CCCCCCCCCCCCCCCCCCC(=O)*; γGlu = O=C(O)[C@H](CCC(=O)[*:2])N[*:1]

Tests used:
[1] = Agonist activity at human AMY3R (CT+RAMP3) expressed in Hollex1 cells incubated for 3 hrs by luminescence assay; type: cell-based; settings: Hollex1, 3 h
[2] = Agonist activity at human calcitonin receptor expressed in BHK570 cells assessed as increase in intracellular cAMP concentration incubated for 3 hrs in absence of albumin by CRE luciferase reporter gene assay; type: cell-based; settings: BHK570, 3 h
Homo sapiens [3] = species on record: Homo sapiens; test: Ratio of EC50 for human calcitonin receptor expressed in BHK570 cells to EC50 for human AMY3R (CT+RAMP3) expressed in Hollex1 cells; type: cell-based
[4] = Agonist activity at rat AMY3R (CT+RAMP3) expressed in tk-ts13 cells assessed as increase in intracellular cAMP level incuabted for 25 mins by CRE luciferase reporter gene assay; type: cell-based; settings: tk-ts13, 25 min
[5] = Agonist activity at rat calcitonin receptor expressed in BHK-13 cells assessed as increase in intracellular cAMP concentration incubated for 25 mins by CRE luciferase reporter gene assay; type: cell-based; settings: BHK-13, 25 min
Rattus norvegicus [6] = species on record: Rattus norvegicus; test: Ratio of EC50 for rat calcitonin receptor expressed in BHK-13 cells to EC50 for rat AMY3R (CT+RAMP3) expressed in tk-ts13 cells; type: cell-based
[7] = Displacement of [125I]-amylin from human AMY3R (CTR+RAMP3) expressed in BHK-13 cells measured after 120 mins by scintillation proximity assay; type: cell-based
[8] = Displacement of [125I]-calcitonin from human calcitonin receptor expressed in tk-ts 13 cells measured after 120 mins by scintillation proximity assay; type: cell-based; settings: tk-ts13
Homo sapiens [9] = species on record: Homo sapiens; test: Ratio of IC50 for displacement of [125I]-calcitonin from human calcitonin receptor expressed in tk-ts 13 cells to IC50 for displacement of [125I]-amylin from human AMY3R (CTR+RAMP3) expressed in BHK-13 cells; type: cell-based
[10] = Displacement of [125I]-amylin from rat AMY3R (CTR+RAMP3) expressed in BHK-13 cells measured after 120 mins by scintillation proximity assay; type: cell-based
[11] = Displacement of [125I]-calcitonin from rat calcitonin receptor expressed in tk-ts 13 cells measured after 120 mins by scintillation proximity assay; type: cell-based; settings: tk-ts13
Rattus norvegicus [12] = species on record: Rattus norvegicus; test: Ratio of IC50 for displacement of [125I]-calcitonin from rat calcitonin receptor expressed in tk-ts 13 cells to IC50 for displacement of [125I]-amylin from rat AMY3R (CTR+RAMP3) expressed in BHK-13 cells; type: cell-based
[13] = Solubility of the compound in lactate at pH 3 by UPLC analysis; type: physicochemical; settings: lactate buffer
[14] = Solubility of the compound in lactate at pH 4 by UPLC analysis; type: physicochemical; settings: lactate buffer
[15] = Solubility of the compound in lactate at pH 5 by UPLC analysis; type: physicochemical; settings: lactate buffer
[16] = Solubility of the compound in bis-tris propane at pH 6 by UPLC analysis; type: physicochemical; settings: bis-tris propane buffer
[17] = Solubility of the compound in bis-tris propane at pH 6.5 by UPLC analysis; type: physicochemical; settings: bis-tris propane buffer
[18] = Solubility of the compound in bis-tris propane at pH 7 by UPLC analysis; type: physicochemical; settings: bis-tris propane buffer
[19] = Solubility of the compound in bis-tris propane at pH 7.5 by UPLC analysis; type: physicochemical; settings: bis-tris propane buffer
[20] = Solubility of the compound in bis-tris propane at pH 8 by UPLC analysis; type: physicochemical; settings: bis-tris propane buffer
Insulin (Homo sapiens) [21] = molecular target: Insulin (Homo sapiens) (UniProt P01308); test: Effect on insulin (unknown origin) amyloid fibril formation assessed as lag time in glycyl-glycine buffer at pH 4 measured after 45 hrs by thioflavin-T fluorescence assay
Insulin (Homo sapiens), sequence (P01308 whole entry): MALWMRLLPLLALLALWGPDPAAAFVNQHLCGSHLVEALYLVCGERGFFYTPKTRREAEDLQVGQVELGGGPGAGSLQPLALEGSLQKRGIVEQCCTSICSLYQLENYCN

Insulin (Homo sapiens) [22] = molecular target: Insulin (Homo sapiens) (UniProt P01308); test: Effect on insulin (unknown origin) amyloid fibril formation assessed as peptide recovery in glycyl-glycine buffer at pH 4 measured after 45 hrs by thioflavin-T fluorescence assay relative to control; parameters: concentration or dose not given beside the values
Insulin (Homo sapiens) [23] = molecular target: Insulin (Homo sapiens) (UniProt P01308); test: Effect on insulin (unknown origin) amyloid fibril formation assessed as lag time in HEPES buffer at pH 7.5 measured after 45 hrs by thioflavin-T fluorescence assay
Insulin (Homo sapiens) [24] = molecular target: Insulin (Homo sapiens) (UniProt P01308); test: Effect on insulin (unknown origin) amyloid fibril formation assessed as peptide recovery in HEPES buffer at pH 7.5 measured after 45 hrs by thioflavin-T fluorescence assay relative to control
Rattus norvegicus [25] = test: Reduction in food intake in Sprague-Dawley rat at 30 nmol/kg, sc administered as single dose measured upto 24 hrs relative to control; type: functional; parameters: scale not given: the % may be the effect or the level left; settings: time hrs <=24
Rattus norvegicus [26] = test: Reduction in food intake in Sprague-Dawley rat at 30 nmol/kg, sc administered as single dose measured after 24 to 48 hrs relative to control; type: functional; parameters: scale not given: the % may be the effect or the level left; settings: time 24-48 hrs
Rattus norvegicus [27] = test: Reduction in food intake in Sprague-Dawley rat at 3 nmol/kg, sc administered as single dose measured upto 24 hrs relative to control; type: functional; parameters: scale not given: the % may be the effect or the level left; settings: time hrs <=24
Rattus norvegicus [28] = test: Reduction in food intake in Sprague-Dawley rat at 3 nmol/kg, sc administered as single dose measured after 24 to 48 hrs relative to control; type: functional; parameters: scale not given: the % may be the effect or the level left; settings: time 24-48 hrs
[29] = Dose normalized AUC in Sprague-Dawley rat at 10 nmol/kg, iv measured up to 96 hrs by LC-MS analysis; type: ADME, organism-based; settings: in vivo
[30] = Apparent volume of distribution in Sprague-Dawley rat at 10 nmol/kg, iv measured up to 96 hrs by LC-MS analysis; type: ADME, organism-based; settings: in vivo, read-out: Vz
[31] = Clearance in Sprague-Dawley rat at 10 nmol/kg, iv measured up to 96 hrs by LC-MS analysis; type: ADME, organism-based; settings: in vivo
[32] = Half life in Sprague-Dawley rat at 10 nmol/kg, iv measured up to 96 hrs by LC-MS analysis; type: ADME, organism-based; settings: in vivo
[33] = Dose normalized AUC in Sprague-Dawley rat at 10 nmol/kg, sc measured up to 96 hrs by LC-MS analysis; type: ADME, organism-based; settings: in vivo
[34] = Half life in Sprague-Dawley rat at 10 nmol/kg, sc measured up to 96 hrs by LC-MS analysis; type: ADME, organism-based; settings: in vivo
[35] = Bioavailability in Sprague-Dawley rat at 10 nmol/kg, sc measured up to 96 hrs by LC-MS analysis; type: ADME, organism-based; settings: in vivo

EC50 [1] | EC50 [2] | EC50 [4] | EC50 [5] | IC50 [7] | IC50 [8] | IC50 [10] | IC50 [11] | solubility [13] | solubility [14] | solubility [15] | solubility [16] | solubility [18] | solubility [19] | TIME (Insulin (Homo sapiens) [21]) | Activity (Insulin (Homo sapiens) [22]) | SMILES | Ratio EC50 (Homo sapiens [3]) | Ratio EC50 (Rattus norvegicus [6]) | Ratio IC50 (Homo sapiens [9]) | Ratio IC50 (Rattus norvegicus [12]) | further results
0.049 nM | 0.062 nM | 0.348 nM | 0.287 nM | 0.17 nM | 0.223 nM | 0.52 nM | 0.681 nM | 200 µM (≈ 882 µg/mL) | 200 µM (≈ 882 µg/mL) | 200 µM (≈ 882 µg/mL) | 200 µM (≈ 882 µg/mL) | 200 µM (≈ 882 µg/mL) | 200 µM (≈ 882 µg/mL) | 45 h | 96% | CC[C@H](C)[C@H](NC(=O)[C@@H]1CCCN1C(=O)CNC(=O)[C@H](Cc1ccccc1)NC(=O)[C@H](CC(N)=O)NC(=O)[C@H](CC(N)=O)NC(=O)[C@H](CO)NC(=O)[C@H](CO)NC(=O)[C@H](Cc1c[nH]cn1)NC(=O)[C@H](CCCNC(=N)N)NC(=O)[C@H](CC(C)C)NC(=O)[C@H](Cc1ccccc1)NC(=O)[C@H](CCC(=O)O)NC(=O)[C@H](C)NC(=O)[C@H](CC(C)C)NC(=O)[C@H](CCCNC(=N)N)NC(=O)[C@H](CCC(N)=O)NC(=O)[C@@H](NC(=O)[C@H](C)NC(=O)[C@@H]1CSSC[C@H](NC(=O)[C@H](CCCCN)NC(=O)CC[C@H](NC(=O)CCCCCCCCCCCCCCCCCCC(=O)O)C(=O)O)C(=O)N[C@@H](CC(N)=O)C(=O)N[C@@H]([C@@H](C)O)C(=O)N[C@@H](C)C(=O)N[C@@H]([C@@H](C)O)C(=O)N1)[C@@H](C)O)C(=O)N[C@@H](CC(C)C)C(=O)N1CCC[C@H]1C(=O)N1CCC[C@H]1C(=O)N[C@H](C(=O)N[C@@H](CC(N)=O)C(=O)N[C@H](C(=O)NCC(=O)N[C@@H](CO)C(=O)N[C@@H](CC(N)=O)C(=O)N[C@H](C(=O)N1CCC[C@H]1C(N)=O)[C@@H](C)O)C(C)C)[C@@H](C)O | 1 | 1 | 1 | 1 | solubility [17]: 200 µM (≈ 882 µg/mL); solubility [20]: 200 µM (≈ 882 µg/mL); TIME (Insulin (Homo sapiens) [23]): 41 h; Activity (Insulin (Homo sapiens) [24]): 76%; Activity (Rattus norvegicus [25]): 85%; Activity (Rattus norvegicus [26]): 84%; Activity (Rattus norvegicus [27]): 40%; Activity (Rattus norvegicus [28]): 29%; AUC/dose [29]: 266 kg·h/L; Vd [30]: 0.109 L/kg; clearance [31]: 3.77 mL/h/kg; half-life [32]: 20 h; AUC/dose [33]: 87 kg·h/L; half-life [34]: 27 h; bioavailability [35]: 30%
0.145 nM | 0.147 nM | 0.246 nM | 0.673 nM | 1.07 nM | 1.12 nM | 0.194 nM | 0.666 nM | 200 µM (≈ 896 µg/mL) | 200 µM (≈ 896 µg/mL) | 200 µM (≈ 896 µg/mL) | 200 µM (≈ 896 µg/mL) | 103 µM (≈ 461 µg/mL) | 109 µM (≈ 488 µg/mL) | 37 h | 91% | CC[C@H](C)[C@H](NC(=O)[C@@H]1CCCN1C(=O)CNC(=O)[C@H](Cc1ccccc1)NC(=O)[C@H](CC(N)=O)NC(=O)[C@H](CC(N)=O)NC(=O)[C@H](CO)NC(=O)[C@H](CO)NC(=O)[C@H](Cc1c[nH]cn1)NC(=O)[C@H](Cc1cnc[nH]1)NC(=O)[C@H](CC(C)C)NC(=O)[C@H](Cc1ccccc1)NC(=O)[C@H](CCC(=O)O)NC(=O)[C@H](C)NC(=O)[C@H](CC(C)C)NC(=O)[C@H](CCCNC(=N)N)NC(=O)[C@H](CCC(N)=O)NC(=O)[C@@H](NC(=O)[C@H](C)NC(=O)[C@@H]1CSSC[C@H](NC(=O)[C@H](CCCCN)NC(=O)CC[C@H](NC(=O)CCCCCCCCCCCCCCCCCCC(=O)O)C(=O)O)C(=O)N[C@@H](CC(N)=O)C(=O)N[C@@H]([C@@H](C)O)C(=O)N[C@@H](C)C(=O)N[C@@H]([C@@H](C)O)C(=O)N1)[C@@H](C)O)C(=O)N[C@@H](CC(C)C)C(=O)N1CCC[C@H]1C(=O)N1CCC[C@H]1C(=O)N[C@H](C(=O)N[C@@H](CC(N)=O)C(=O)N[C@H](C(=O)NCC(=O)N[C@@H](CO)C(=O)N[C@@H](Cc1cnc[nH]1)C(=O)N[C@H](C(=O)N[C@@H](Cc1ccc(O)cc1)C(N)=O)[C@@H](C)O)C(C)C)[C@@H](C)O ({C20 diacid-γGlu}-KCNTATCATQRLAEFLHHSSNNFGPILPPTNVGSHTY-NH2; disulfide 2-7) | 1 | 3 | 1 | 3 | TIME (Insulin (Homo sapiens) [23]): 1 h; Activity (Insulin (Homo sapiens) [24]): 29%; Activity (Rattus norvegicus [25]): 88%; Activity (Rattus norvegicus [26]): 90%; Activity (Rattus norvegicus [27]): 58%; Activity (Rattus norvegicus [28]): 40%
